Data reported in patent US20250221966A1, “RXFP1 AGONISTS” (BRISTOL-MYERS SQUIBB COMPANY, priority 2021, published 2025).

Molecular target: T1, human RXFP1 (Homo sapiens, UniProt Q9HBX9)
T1 construct: expressed in transfected cells
T1 sequence (Q9HBX9 1-757): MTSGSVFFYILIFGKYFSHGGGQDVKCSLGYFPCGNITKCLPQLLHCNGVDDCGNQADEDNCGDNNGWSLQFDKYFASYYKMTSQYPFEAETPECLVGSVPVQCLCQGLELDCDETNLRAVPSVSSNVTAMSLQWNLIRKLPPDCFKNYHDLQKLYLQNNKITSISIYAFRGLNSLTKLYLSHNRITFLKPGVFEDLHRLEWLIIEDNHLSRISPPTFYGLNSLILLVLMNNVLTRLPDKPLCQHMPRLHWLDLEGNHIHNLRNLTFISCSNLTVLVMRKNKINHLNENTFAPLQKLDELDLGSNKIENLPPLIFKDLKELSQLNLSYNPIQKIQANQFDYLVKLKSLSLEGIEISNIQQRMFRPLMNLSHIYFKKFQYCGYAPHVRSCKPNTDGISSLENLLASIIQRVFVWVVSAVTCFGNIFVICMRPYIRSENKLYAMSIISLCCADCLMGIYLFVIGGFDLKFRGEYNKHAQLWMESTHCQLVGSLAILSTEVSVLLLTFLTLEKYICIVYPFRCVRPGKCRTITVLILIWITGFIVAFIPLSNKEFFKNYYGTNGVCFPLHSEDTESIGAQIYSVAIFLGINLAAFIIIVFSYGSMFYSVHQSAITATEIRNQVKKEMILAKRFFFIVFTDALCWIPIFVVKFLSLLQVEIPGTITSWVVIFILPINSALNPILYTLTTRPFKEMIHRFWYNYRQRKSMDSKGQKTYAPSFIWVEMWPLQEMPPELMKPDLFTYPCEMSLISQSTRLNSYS
Experiment: RXFP1 cAMP assay (hRXFP1 HEK293 cAMP assay, HTRF)
Format: cell-based
Conditions: HEK293 cells stably expressing human RXFP1, 30 min at room temperature, read-out: cAMP hRXFP1 HEK293 Assay EC50
How it was run: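 hRXFP1-HEK293 stable line; HBSS + Ca/Mg, 20 mM HEPES, 0.05% BSA, 0.5 mM IBMX; cpd 0.010 nM–50 μM, 2% DMSO; 30 min RT; lysis, HTRF cAMP detection; 4-PL fit.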

SMILES | EC50 [nM]
COc1ccc(C2=NOC3CC(C)(CO)CC23)cc1C(=O)N[C@H]1[C@@H](C(=O)Nc2ccc(F)c(C(F)(F)F)c2)[C@H]2CC[C@@H]1/C2=C\C1CCCC1 (stereo partly shown) [compound 749] | 3.3
O=C(N[C@H]1[C@@H](C(=O)Nc2ccc(F)c(C(F)(F)F)c2)[C@H]2CC[C@@H]1/C2=C\C1CC1)c1cc(C2=NOC3CC(CO)CC23)cc(F)c1OCC(F)F (stereo partly shown) [compound 789] | 4.4
COc1ccc(C2=NOC3CCCC23)cc1C(=O)N[C@H]1[C@@H](C(=O)Nc2ccc(F)c(C(F)(F)F)c2)[C@H]2CC[C@@H]1/C2=C\C1CC1 (single isomer, unassigned) [Example 441] | 360
COc1ccc(Br)cc1C(=O)NC1C2CCC(C2=C(C)C)C1C(=O)Nc1ccc(F)c(C(F)(F)F)c1 (stereo not shown) [Example 76] | 400
COc1ccc(-n2cc(C(NC(=O)C3CCOCC3)C(=O)O)cn2)cc1C(=O)N[C@@H]1C2CCC(/C2=C/C(F)(F)F)[C@@H]1C(=O)Nc1ccc(F)c(C(F)(F)F)c1 (stereo partly shown) [compound 347] | 62
COc1cc(F)c(F)cc1C(=O)N[C@@H]1C2CCC(/C2=C/c2cccc(OCC(F)(F)F)c2)[C@@H]1C(=O)Nc1ccc(F)c(C(F)(F)F)c1 (stereo partly shown) [compound 28] | 400
COc1cc(F)c(F)cc1C(=O)N[C@@H]1C2CCC(/C2=C/c2ccccc2)[C@@H]1C(=O)Nc1cccc(S(C)(=O)=O)c1 (stereo partly shown) [compound 139] | 550
COc1ccc(C2=NOC3COCC23)cc1C(=O)N[C@H]1[C@@H](C(=O)Nc2ccc(F)c(C(F)(F)F)c2)[C@H]2CC[C@@H]1/C2=C\C1CC1 (stereo partly drawn) [Example 417, (1R,2S,3R,4R,Z)-7-(cyclopropylmethylene)-N-(4-fluoro-3-(trifluoromethyl)phenyl)-3-(2-methoxy-5-(3a,4,6,6a-tetrahydrofuro[3,4-d]isoxazol-3-yl)benzamido)bicyclo[2.2.1]heptane-2-carboxamide] | 172
COc1ccc(Br)cc1C(=O)N[C@@H]1C2CCC(/C2=C/C(F)(F)F)[C@@H]1C(=O)Nc1ccc(F)c(C(F)(F)F)c1 (stereo partly shown) [compound 292] | 1860
COc1ccc(-c2cc([C@H](OC(=O)NC3CCC3)C(F)(F)F)ccc2F)cc1C(=O)N[C@@H]1C2CCC(/C2=C/C2CC(F)(F)C2)[C@@H]1C(=O)Nc1ccc(F)c(C(F)(F)F)c1 (stereo partly shown) [compound 359] | 2
COc1ccc(-c2c(C)noc2C)cc1C(=O)N[C@H]1[C@@H](C(=O)Nc2ccc(F)c(C(F)(F)F)c2)[C@H]2CC[C@@H]1C2=C(C)C [compound 104] | 1600
COc1ccc(-c2cc(C(C)OC(=O)Nc3ccccc3)ccc2F)cc1C(=O)N[C@H]1[C@@H](C(=O)Nc2ccc(F)c(C(F)(F)F)c2)[C@H]2CC[C@@H]1/C2=C\C1CC1 (stereo partly drawn) [Example 222, 1-(3′-(((1R,2R,3S,4R,Z)-7-(cyclopropylmethylene)-3-((4-fluoro-3-(trifluoromethyl)phenyl)carbamoyl)bicyclo[2.2.1]heptan-2-yl)carbamoyl)-6-fluoro-4′-methoxy-[1,1′-biphenyl]-3-yl)ethyl phenylcarbamate] | 1
COc1ccc(C2=NO[C@@H]3[C@@H](O)CCN23)cc1C(=O)N[C@H]1[C@@H](C(=O)Nc2ccc(F)c(C(F)(F)F)c2)[C@H]2CC[C@@H]1/C2=C\C1CC1 [compound 857] | 5
COC(=O)NC(C(=O)O)c1ccc(F)c(-c2ccc(OC)c(C(=O)N[C@@H]3C4CCC(/C4=C/C(F)(F)F)[C@@H]3C(=O)Nc3ccc(F)c(C(F)(F)F)c3)c2)c1 (stereo partly shown) [compound 185] | 15
COc1ccc(-c2ccc(C(=O)O)cc2F)cc1C(=O)N[C@H]1[C@@H](C(=O)Nc2ccc(F)c(C(F)(F)F)c2)[C@H]2CC[C@@H]1C2=C(C)C [compound 84] | 110
COc1ccc(-c2cc(C(=O)O)ccc2F)cc1C(=O)N[C@@H]1C2CCC(/C2=C/C2CC2)[C@@H]1C(=O)NC1CC2(CCC2)C1 (stereo partly shown) [compound 301] | 850
COC(=O)N1CC2ON=C(c3ccc(OC)c(C(=O)N[C@H]4[C@@H](C(=O)Nc5ccc(F)c(C(F)(F)F)c5)[C@H]5CC[C@@H]4/C5=C\C4CC4)c3)C2C1 (stereo partly drawn) [Example 438, methyl 3-(3-(((1R,2R,3S,4R,Z)-7-(cyclopropylmethylene)-3-((4-fluoro-3-(trifluoromethyl)phenyl)carbamoyl)bicyclo[2.2.1]heptan-2-yl)carbamoyl)-4-methoxyphenyl)-3a,4,6,6a-tetrahydro-5H-pyrrolo[3,4-d]isoxazole-5-carboxylate] | 24
COc1ccc(-c2cc(C(O)C(=O)O)ccc2F)cc1C(=O)N[C@H]1[C@@H](C(=O)Nc2ccc(F)c(C(F)(F)F)c2)[C@H]2CC[C@@H]1/C2=C\CC1CC(F)(F)C1 (stereo partly drawn) [Example 352, 2-(3′-(((1R,2R,3S,4R,Z)-7-(2-(3,3-difluorocyclobutyl)ethylidene)-3-((4-fluoro-3-(trifluoromethyl)phenyl)carbamoyl)bicyclo[2.2.1]heptan-2-yl)carbamoyl)-6-fluoro-4′-methoxy-[1,1′-biphenyl]-3-yl)-2-hydroxyacetic acid] | 64
COc1ccc(C2=NOC3CC(C)(CO)CC23)cc1C(=O)N[C@H]1[C@@H](C(=O)Nc2ccc(F)c(C(F)(F)F)c2)[C@H]2CC[C@@H]1/C2=C\C1CCCC1 (stereo partly shown) [compound 748] | 3.3

SMILES | EC50 [nM]
COc1c(F)cc(C2=NOC3COCC23)cc1C(=O)N[C@H]1[C@@H](C(=O)Nc2ccc(F)c(C(F)(F)F)c2)[C@H]2CC[C@@H]1/C2=C\C1CC1 (stereo partly shown) [compound 791] | 0.8
COc1ccc(C2=NOC3COCC23)cc1C(=O)N[C@H]1[C@@H](C(=O)NCC2(C)CC2)[C@H]2CC[C@@H]1/C2=C\C1CC1 (stereo partly shown) [compound 522] | 21.1
COc1ccc(C2=NOC3COCC23)cc1C(=O)N[C@H]1[C@@H](C(=O)Nc2ccc(F)c(OC(F)(F)F)c2)[C@H]2CC[C@@H]1/C2=C\C1CC1 (stereo partly shown) [compound 761] | 1.9
COc1ccc(C2=NOC3CC(C(O)C(F)(F)F)CC23)cc1C(=O)N[C@H]1[C@@H](C(=O)Nc2ccc(F)c(C(F)(F)F)c2)[C@H]2CC[C@@H]1/C2=C\C1CC1 (single isomer, unassigned) [Example 489] | 8.5
COc1ccc(C2=NOC3COCC23)cc1C(=O)N[C@H]1[C@@H](C(=O)N[C@@H](C)C2(C)CC2)[C@H]2CC[C@@H]1/C2=C\C1CC1 (stereo partly shown) [compound 609] | 130
COc1ccc(C2=NOC(CO)C2)cc1C(=O)N[C@@H]1C2CCC(/C2=C/C2CCC2)[C@@H]1C(=O)Nc1ccc(F)c(C(F)(F)F)c1 (single isomer, unassigned) [Example 379] | 26
COc1ccc(C2=NO[C@@H]3[C@H](O)CC[C@H]23)cc1C(=O)N[C@H]1[C@@H](C(=O)Nc2ccc(F)c(C(F)(F)F)c2)[C@H]2CC[C@@H]1/C2=C\C1CC1 (single isomer, unassigned) [compound 583] | 74.9
COc1ccc(-c2cc(C(=O)O)ccc2F)cc1C(=O)N[C@@H]1C2CCC(/C2=C/C2CC2)[C@@H]1C(=O)N[C@H](C)c1ccccc1 (stereo partly shown) [compound 261] | 1880
COc1cc(F)c(F)cc1C(=O)N[C@@H]1C2CCC(/C2=C/C2=CCCC2)[C@@H]1C(=O)Nc1ccc(F)c(C(F)(F)F)c1 (stereo partly shown) [compound 38] | 360
COc1ccc(-c2ccc(C(=O)O)cc2)cc1C(=O)N[C@@H]1C2CCC(/C2=C/C2CC2)[C@@H]1C(=O)Nc1ccc(F)c(C(F)(F)F)c1 (stereo partly shown) [compound 167] | 16
COc1ccc(N2CCC(NC(=O)C3CCOCC3)C2)cc1C(=O)N[C@@H]1C2CCC(/C2=C/C(F)(F)F)[C@@H]1C(=O)Nc1ccc(F)c(C(F)(F)F)c1 (single isomer, unassigned) [compound 337] | 2080
COc1ccc(-c2cnc3n2CC(O)CC3)cc1C(=O)N[C@H]1[C@@H](C(=O)Nc2ccc(F)c(C(F)(F)F)c2)[C@H]2CC[C@@H]1/C2=C\C1CC1 (stereo partly shown) [compound 755] | 5
COc1ccc(-c2cc(C(OC(C)=O)C(=O)O)ccc2F)cc1C(=O)N[C@@H]1C2CCC(/C2=C/c2cnoc2)[C@@H]1C(=O)Nc1ccc(F)c(C(F)(F)F)c1 (stereo partly shown) [Example 178] | 11
C=C/C=C1\C2CCC1[C@H](C(=O)Nc1ccc(F)c(C(F)(F)F)c1)[C@@H]2NC(=O)c1cc(-c2cc(C(N)=O)ccc2F)ccc1OC (stereo partly shown) [compound 163] | 13
COc1ccc(C2=NOC3CC(CO)CC23)cc1C(=O)N[C@H]1[C@@H](C(=O)N[C@H](C)C2(C)CC2)[C@H]2CC[C@@H]1/C2=C\c1ccncn1 (stereo partly shown) [compound 807] | 2.1
COc1ccc(-c2cc([C@H](OC(=O)NC3CCC3)C(F)(F)F)ccc2F)cc1C(=O)N[C@@H]1C2CCC(/C2=C/CC(C)C)[C@@H]1C(=O)Nc1ccc(F)c(C(F)(F)F)c1 (stereo partly shown) [compound 926] | 2.8
CNC(=O)c1ccc(-c2ccc(OC)c(C(=O)N[C@@H]3C4CCC(/C4=C/c4ccccc4)[C@@H]3C(=O)Nc3ccc(F)c(C(F)(F)F)c3)c2)c(F)c1 (stereo partly shown) [compound 196] | 45
COc1cc(C)c(-c2nnc(CO)s2)cc1C(=O)N[C@H]1[C@@H](C(=O)N[C@H](C)C2(C)CC2)[C@H]2CC[C@@H]1/C2=C\C1CC1 [compound 810] | 4.7
